Experimental data published in ChEMBL document CHEMBL4177534, “Discovery and evaluation of 1H-pyrrolo[2,3-b]pyridine based selective and reversible small molecule BTK inhibitors for the treatment of rheumatoid arthritis” (Bioorg Med Chem Lett, 2017).
≈ marks a conversion by molar mass, not a printed value.

Key:
[1] = molecular target: Tyrosine-protein kinase BTK (Homo sapiens, UniProt Q06187); experiment: Inhibition of recombinant human full length BTK preincubated for 10 mins followed by Tk-biotin peptide substrate addition after 90 mins by TR-FRET assay
[2] = Equilibrium aqueous solubility of the compound at pH 7.4; assay type: physicochemical
[3] = molecular target: Tyrosine-protein kinase TXK (Homo sapiens, UniProt P42681); experiment: Inhibition of TXK (unknown origin)
[4] = molecular target: Tyrosine-protein kinase JAK1 (Homo sapiens, UniProt P23458); experiment: Inhibition of JAK1 (unknown origin)
[5] = molecular target: Tyrosine-protein kinase BTK (Mus musculus, UniProt P35991); experiment: Inhibition of mouse BTK assessed as decrease in anti-CD3epsilon antibody stimulated TCR mediated CD69 upregulation in whole blood preincubated for 1 hr followed by antibody challenge after 4 hrs by flow cytometry
[6] = Equilibrium aqueous solubility of the compound at pH 2.1; assay type: physicochemical
[7] = Clearance in mouse at 3 mg/kg, iv; assay type: ADME, organism-based; settings: in vivo
Mus musculus [8] = experiment: Ex-vivo inhibition of BTK in C57BL/6J mouse assessed as anti-mouse IgD antibody stimulated BCR mediated CD69 level in whole blood isolated from 10 mg/kg, po bid treated mouse measured after 6 hrs post first dose by flow cytometry relative to control; assay type: functional; parameters: scale not given: the % may be the effect or the level left
Mus musculus [9] = experiment: Ex-vivo inhibition of BTK in C57BL/6J mouse assessed as anti-mouse IgD antibody stimulated BCR mediated CD69 level in whole blood isolated from 30 mg/kg, po bid treated mouse measured after 24 hrs post first dose by flow cytometry relative to control; assay type: functional; parameters: scale not given: the % may be the effect or the level left
Mus musculus [10] = experiment: Antiarthritic activity in DBA/1J mouse type-2 collagen-induced arthritis model assessed as reduction in joint histological score immunized with type-2 collagen on day 1 and day 21 followed by LPS challenge on day 28 subsequent compound administration po bid by hematoxylin and eosin staining based assay; assay type: functional, organism-based
[11] = molecular target: Serine/threonine-protein kinase 4 (Homo sapiens) (UniProt Q13043); experiment: Inhibition of recombinant human full length N-terminal GST-tagged MST1 expressed in baculovirus infected Sf9 cells assessed as change in enzyme activity at 1 uM in presence of 1 uM ATP relative to control; parameters: scale not given: the % may be the effect or the level left
[12] = molecular target: Death-associated protein kinase 1 (Homo sapiens) (UniProt P53355); experiment: Inhibition of recombinant human N-terminal GST-tagged DAPK1 (1 to363 residues) expressed in baculovirus infected Sf9 cells assessed as change in enzyme activity at 1 uM in presence of 1 uM ATP relative to control; parameters: scale not given: the % may be the effect or the level left
[13] = molecular target: Cyclin-dependent kinase 1/Cyclin A1 (Homo sapiens) (UniProt P06493+P78396); experiment: Inhibition of recombinant human full length N-terminal GST-tagged CDK1/CyclinA1 expressed in baculovirus infected Sf9 cells assessed as change in enzyme activity at 1 uM in presence of 1 uM ATP relative to control; parameters: scale not given: the % may be the effect or the level left
[14] = molecular target: Proto-oncogene tyrosine-protein kinase Src (Homo sapiens) (UniProt P12931); experiment: Inhibition of SRC (unknown origin) assessed as change in enzyme activity in presence of 1 uM ATP relative to control; parameters: scale not given: the % may be the effect or the level left
[15] = molecular target: Calcium/calmodulin-dependent protein kinase type IV (Homo sapiens) (UniProt Q16566); experiment: Inhibition of recombinant human full length N-terminal GST-tagged CAMK4 expressed in baculovirus infected Sf9 cells assessed as change in enzyme activity at 1 uM in presence of 2 uM ATP relative to control; parameters: scale not given: the % may be the effect or the level left
[16] = molecular target: Epidermal growth factor receptor (Homo sapiens) (UniProt P00533); experiment: Inhibition of recombinant human N-terminal GST-tagged EGFR expressed in baculovirus infected Sf9 cells assessed as change in enzyme activity at 1 uM in presence of 1 uM ATP relative to control; parameters: scale not given: the % may be the effect or the level left
[17] = molecular target: MAP kinase-activated protein kinase 3 (Homo sapiens) (UniProt Q16644); experiment: Inhibition of recombinant human full length N-terminal GST-tagged MAPKAPK3 expressed in baculovirus infected Sf9 cells assessed as change in enzyme activity at 1 uM in presence of 1 uM ATP relative to control; parameters: scale not given: the % may be the effect or the level left
[18] = molecular target: Tyrosine-protein kinase Lyn (Homo sapiens) (UniProt P07948); experiment: Inhibition of recombinant human full length N-terminal GST-tagged LYN A expressed in baculovirus infected Sf9 cells assessed as change in enzyme activity at 1 uM in presence of 1 uM ATP relative to control; parameters: scale not given: the % may be the effect or the level left
[19] = molecular target: Hepatocyte growth factor receptor (Homo sapiens) (UniProt P08581); experiment: Inhibition of recombinant human N-terminal GST-tagged MET (956 to end residues) expressed in baculovirus infected Sf9 cells assessed as change in enzyme activity at 1 uM in presence of 1 uM ATP relative to control; parameters: scale not given: the % may be the effect or the level left
[20] = molecular target: Serine/threonine-protein kinase pim-2 (Homo sapiens) (UniProt Q9P1W9); experiment: Inhibition of recombinant human full length N-terminal GST-tagged PIM2 expressed in baculovirus infected Sf9 cells assessed as change in enzyme activity at 1 uM in presence of 1 uM ATP relative to control; parameters: scale not given: the % may be the effect or the level left
[21] = molecular target: Mitogen-activated protein kinase kinase kinase 9 (Homo sapiens) (UniProt P80192); experiment: Inhibition of recombinant human N-terminal GST-tagged MLK1 (1 to 433 residues) expressed in baculovirus infected Sf9 cells assessed as change in enzyme activity at 1 uM in presence of 2 uM ATP relative to control; parameters: scale not given: the % may be the effect or the level left
[22] = molecular target: Tyrosine-protein kinase Tec (Homo sapiens) (UniProt P42680); experiment: Inhibition of recombinant full length N-terminal GST-tagged TEC (unknown origin) expressed in baculovirus infected Sf9 cells assessed as change in enzyme activity at 1 uM in presence of 2 uM ATP relative to control; parameters: scale not given: the % may be the effect or the level left
[23] = molecular target: Insulin-like growth factor 1 receptor (Homo sapiens) (UniProt P08069); experiment: Inhibition of recombinant human N-terminal His tagged IGF1R (960 to end residues) expressed in baculovirus infected Sf9 cells assessed as change in enzyme activity at 1 uM in presence of 2 uM ATP relative to control; parameters: scale not given: the % may be the effect or the level left
[24] = molecular target: PAK 1/CDC42 (Homo sapiens) (UniProt Q13153+P60953); experiment: Inhibition of recombinant human full length N-terminal GST-tagged PAK1/CDC42 expressed in baculovirus infected Sf9 cells assessed as change in enzyme activity at 1 uM in presence of 2 uM ATP relative to control; parameters: scale not given: the % may be the effect or the level left
[25] = molecular target: STE20-like serine/threonine-protein kinase (Homo sapiens) (UniProt Q9H2G2); experiment: Inhibition of recombinant human full length N-terminal GST-tagged SLK expressed in baculovirus infected Sf9 cells assessed as change in enzyme activity at 1 uM in presence of 2 uM ATP relative to control; parameters: scale not given: the % may be the effect or the level left
Mus musculus [26] = experiment: Ex-vivo inhibition of BTK in C57BL/6J mouse assessed as anti-mouse IgD antibody stimulated BCR mediated CD69 level in whole blood isolated from 30 mg/kg, po bid treated mouse measured after 2 hrs post first dose by flow cytometry relative to control; assay type: functional; parameters: scale not given: the % may be the effect or the level left
Mus musculus [27] = experiment: Ex-vivo inhibition of BTK in C57BL/6J mouse assessed as anti-mouse IgD antibody stimulated BCR mediated CD69 level in whole blood isolated from 10 mg/kg, po bid treated mouse measured after 24 hrs post first dose by flow cytometry relative to control; assay type: functional; parameters: scale not given: the % may be the effect or the level left
Mus musculus [28] = experiment: Ex-vivo inhibition of BTK in C57BL/6J mouse assessed as anti-mouse IgD antibody stimulated BCR mediated CD69 level in whole blood isolated from 100 mg/kg, po bid treated mouse measured after 24 hrs post first dose by flow cytometry relative to control; assay type: functional; parameters: scale not given: the % may be the effect or the level left

Sequence of Hepatocyte growth factor receptor (Homo sapiens) (P08581 whole entry): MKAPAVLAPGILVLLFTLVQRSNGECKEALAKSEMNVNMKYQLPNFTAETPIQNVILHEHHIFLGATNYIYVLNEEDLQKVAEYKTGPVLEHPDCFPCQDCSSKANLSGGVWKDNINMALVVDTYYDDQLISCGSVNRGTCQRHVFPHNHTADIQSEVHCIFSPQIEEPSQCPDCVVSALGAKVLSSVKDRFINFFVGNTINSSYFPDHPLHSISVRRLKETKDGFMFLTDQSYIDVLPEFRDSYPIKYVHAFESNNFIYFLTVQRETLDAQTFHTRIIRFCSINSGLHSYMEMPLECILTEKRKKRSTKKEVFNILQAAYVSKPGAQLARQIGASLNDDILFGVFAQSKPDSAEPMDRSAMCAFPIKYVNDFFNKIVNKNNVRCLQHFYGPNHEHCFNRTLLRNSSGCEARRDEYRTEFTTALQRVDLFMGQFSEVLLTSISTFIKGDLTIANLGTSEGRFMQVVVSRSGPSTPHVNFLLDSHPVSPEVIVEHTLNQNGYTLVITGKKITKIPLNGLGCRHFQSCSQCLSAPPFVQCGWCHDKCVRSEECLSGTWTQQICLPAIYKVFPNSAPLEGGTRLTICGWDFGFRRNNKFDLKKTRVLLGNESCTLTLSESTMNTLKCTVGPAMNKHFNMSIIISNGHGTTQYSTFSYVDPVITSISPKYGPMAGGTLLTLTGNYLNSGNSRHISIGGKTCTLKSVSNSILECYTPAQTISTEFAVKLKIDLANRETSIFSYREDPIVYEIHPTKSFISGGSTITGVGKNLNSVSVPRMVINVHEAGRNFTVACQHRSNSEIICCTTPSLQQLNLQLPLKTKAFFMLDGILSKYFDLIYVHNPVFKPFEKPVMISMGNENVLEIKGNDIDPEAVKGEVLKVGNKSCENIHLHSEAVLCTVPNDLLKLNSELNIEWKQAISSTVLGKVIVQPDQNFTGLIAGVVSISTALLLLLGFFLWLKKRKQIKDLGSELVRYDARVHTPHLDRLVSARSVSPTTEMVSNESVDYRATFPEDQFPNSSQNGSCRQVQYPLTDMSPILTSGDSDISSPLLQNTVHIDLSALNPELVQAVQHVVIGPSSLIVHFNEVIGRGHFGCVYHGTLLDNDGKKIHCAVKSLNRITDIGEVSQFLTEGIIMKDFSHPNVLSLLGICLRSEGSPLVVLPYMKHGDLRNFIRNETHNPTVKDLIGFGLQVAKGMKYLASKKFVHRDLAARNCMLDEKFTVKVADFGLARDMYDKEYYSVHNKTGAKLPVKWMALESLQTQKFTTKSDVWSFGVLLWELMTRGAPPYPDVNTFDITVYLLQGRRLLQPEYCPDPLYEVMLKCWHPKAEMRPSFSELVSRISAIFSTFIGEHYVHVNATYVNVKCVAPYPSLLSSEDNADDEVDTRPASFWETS
Sequence of Tyrosine-protein kinase JAK1 (P23458 whole entry): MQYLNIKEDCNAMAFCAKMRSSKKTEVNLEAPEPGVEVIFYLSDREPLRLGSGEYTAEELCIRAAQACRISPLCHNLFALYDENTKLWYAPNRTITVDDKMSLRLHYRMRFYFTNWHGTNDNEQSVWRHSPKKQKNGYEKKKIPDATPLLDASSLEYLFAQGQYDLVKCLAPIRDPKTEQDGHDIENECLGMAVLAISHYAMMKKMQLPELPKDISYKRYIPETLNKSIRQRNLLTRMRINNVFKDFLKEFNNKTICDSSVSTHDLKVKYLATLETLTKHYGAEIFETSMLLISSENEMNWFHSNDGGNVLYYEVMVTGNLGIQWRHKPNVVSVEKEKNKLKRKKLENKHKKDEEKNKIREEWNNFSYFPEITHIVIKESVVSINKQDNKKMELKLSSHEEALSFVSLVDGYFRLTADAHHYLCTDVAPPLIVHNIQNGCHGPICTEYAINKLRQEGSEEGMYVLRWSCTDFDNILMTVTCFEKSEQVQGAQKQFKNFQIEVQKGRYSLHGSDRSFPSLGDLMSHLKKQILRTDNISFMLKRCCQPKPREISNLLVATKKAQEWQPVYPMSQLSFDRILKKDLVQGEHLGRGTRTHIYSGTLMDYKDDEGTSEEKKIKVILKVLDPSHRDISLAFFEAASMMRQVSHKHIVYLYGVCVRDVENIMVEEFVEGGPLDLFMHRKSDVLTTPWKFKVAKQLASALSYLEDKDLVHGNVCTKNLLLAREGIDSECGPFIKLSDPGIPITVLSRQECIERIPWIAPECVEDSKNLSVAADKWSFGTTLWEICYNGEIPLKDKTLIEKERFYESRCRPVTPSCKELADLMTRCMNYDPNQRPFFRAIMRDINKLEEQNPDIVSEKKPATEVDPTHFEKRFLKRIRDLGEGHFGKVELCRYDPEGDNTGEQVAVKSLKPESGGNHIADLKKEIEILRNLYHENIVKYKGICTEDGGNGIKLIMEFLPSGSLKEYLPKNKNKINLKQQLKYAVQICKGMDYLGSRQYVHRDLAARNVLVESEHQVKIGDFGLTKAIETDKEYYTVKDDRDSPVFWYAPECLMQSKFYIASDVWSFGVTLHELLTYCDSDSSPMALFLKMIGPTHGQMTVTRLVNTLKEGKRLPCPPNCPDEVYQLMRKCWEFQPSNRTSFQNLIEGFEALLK
Sequence of Mitogen-activated protein kinase kinase kinase 9 (Homo sapiens) (P80192 whole entry, looked up, the tested form may be a part): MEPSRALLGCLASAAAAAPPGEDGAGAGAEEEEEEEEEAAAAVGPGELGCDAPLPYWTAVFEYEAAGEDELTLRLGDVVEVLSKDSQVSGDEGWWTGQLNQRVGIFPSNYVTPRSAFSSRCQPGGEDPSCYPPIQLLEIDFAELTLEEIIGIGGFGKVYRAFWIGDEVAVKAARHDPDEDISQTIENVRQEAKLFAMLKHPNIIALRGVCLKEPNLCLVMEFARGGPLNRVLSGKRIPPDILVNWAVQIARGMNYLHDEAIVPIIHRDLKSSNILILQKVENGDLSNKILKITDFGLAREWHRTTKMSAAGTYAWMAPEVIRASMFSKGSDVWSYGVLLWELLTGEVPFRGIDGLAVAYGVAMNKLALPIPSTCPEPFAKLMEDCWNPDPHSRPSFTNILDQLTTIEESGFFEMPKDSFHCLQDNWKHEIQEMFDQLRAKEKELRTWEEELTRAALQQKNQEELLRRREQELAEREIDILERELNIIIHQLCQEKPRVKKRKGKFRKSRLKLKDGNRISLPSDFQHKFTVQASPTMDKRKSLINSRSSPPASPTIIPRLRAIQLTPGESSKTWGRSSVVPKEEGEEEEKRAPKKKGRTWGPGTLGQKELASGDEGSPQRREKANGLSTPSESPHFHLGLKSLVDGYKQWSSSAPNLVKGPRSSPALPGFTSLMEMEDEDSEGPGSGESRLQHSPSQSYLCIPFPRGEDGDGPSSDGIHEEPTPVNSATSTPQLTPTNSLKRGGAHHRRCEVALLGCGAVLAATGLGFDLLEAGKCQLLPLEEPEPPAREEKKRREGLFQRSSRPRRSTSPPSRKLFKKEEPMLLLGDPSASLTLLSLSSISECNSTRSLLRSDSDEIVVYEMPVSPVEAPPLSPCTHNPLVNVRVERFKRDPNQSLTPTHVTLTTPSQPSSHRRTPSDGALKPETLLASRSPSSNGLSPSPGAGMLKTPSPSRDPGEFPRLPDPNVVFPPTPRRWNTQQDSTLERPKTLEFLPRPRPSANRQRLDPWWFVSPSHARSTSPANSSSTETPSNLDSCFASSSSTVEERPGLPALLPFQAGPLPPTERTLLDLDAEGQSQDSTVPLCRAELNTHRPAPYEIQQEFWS
Sequence of Death-associated protein kinase 1 (Homo sapiens) (P53355 whole entry, looked up, the tested form may be a part): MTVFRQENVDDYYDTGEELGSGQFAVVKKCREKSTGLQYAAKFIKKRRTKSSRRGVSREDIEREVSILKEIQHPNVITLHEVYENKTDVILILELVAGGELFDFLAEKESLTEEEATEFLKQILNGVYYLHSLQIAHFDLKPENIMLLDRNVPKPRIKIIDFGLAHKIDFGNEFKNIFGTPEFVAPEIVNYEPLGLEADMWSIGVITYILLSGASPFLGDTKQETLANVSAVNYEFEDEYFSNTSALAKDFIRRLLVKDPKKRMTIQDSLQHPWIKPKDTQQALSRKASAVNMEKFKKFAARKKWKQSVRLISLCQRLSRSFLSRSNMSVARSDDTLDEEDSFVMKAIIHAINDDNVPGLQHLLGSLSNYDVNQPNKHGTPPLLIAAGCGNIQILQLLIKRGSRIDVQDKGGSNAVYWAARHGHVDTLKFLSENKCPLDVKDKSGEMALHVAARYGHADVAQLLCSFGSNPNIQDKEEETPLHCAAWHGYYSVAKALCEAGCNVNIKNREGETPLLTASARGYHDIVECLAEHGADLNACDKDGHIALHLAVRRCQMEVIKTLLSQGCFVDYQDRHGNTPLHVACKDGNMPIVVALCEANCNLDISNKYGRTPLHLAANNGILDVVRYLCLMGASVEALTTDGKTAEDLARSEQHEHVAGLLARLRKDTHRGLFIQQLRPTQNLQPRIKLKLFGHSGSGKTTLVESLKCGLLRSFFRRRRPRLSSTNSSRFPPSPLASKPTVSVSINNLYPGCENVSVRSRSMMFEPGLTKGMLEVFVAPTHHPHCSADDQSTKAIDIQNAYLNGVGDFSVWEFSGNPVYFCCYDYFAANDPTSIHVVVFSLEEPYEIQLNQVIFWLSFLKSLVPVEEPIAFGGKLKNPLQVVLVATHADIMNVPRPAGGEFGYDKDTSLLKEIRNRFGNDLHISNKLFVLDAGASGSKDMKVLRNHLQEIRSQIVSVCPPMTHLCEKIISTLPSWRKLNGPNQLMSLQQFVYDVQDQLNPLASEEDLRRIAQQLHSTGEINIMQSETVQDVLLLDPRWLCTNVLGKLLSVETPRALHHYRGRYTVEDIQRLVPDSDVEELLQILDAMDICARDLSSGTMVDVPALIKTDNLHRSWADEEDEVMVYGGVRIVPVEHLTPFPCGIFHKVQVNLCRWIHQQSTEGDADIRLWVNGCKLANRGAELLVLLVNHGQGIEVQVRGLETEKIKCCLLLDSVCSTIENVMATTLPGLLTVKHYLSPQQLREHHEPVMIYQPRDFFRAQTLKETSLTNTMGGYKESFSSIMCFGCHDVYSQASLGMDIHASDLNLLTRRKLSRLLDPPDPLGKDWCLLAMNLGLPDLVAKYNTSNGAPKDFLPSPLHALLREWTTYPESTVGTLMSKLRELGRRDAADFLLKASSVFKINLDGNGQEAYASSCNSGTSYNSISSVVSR

IC50 [1] [µM]	solubility thermodynamic [2] [µM]	IC50 [3] [µM]	IC50 [4] [µM]	IC50 [5] [µM]	solubility thermodynamic [6] [µM]	clearance [7] [mL/min/kg]	Activity [11] [%]	Activity [13] [%]	Activity [14] [%]	Activity [15] [%]	Activity [16] [%]	Activity [17] [%]	Activity [18] [%]	Activity [19] [%]	Activity [20] [%]	SMILES	Activity (Mus musculus [8]) [%]	Activity (Mus musculus [9]) [%]	Activity (Mus musculus [10])	Activity [12] [%]	also measured
0.0031	31 (≈ 18 µg/mL)	> 10	> 10	> 30	> 2000	5.5	5	-3	-26	1	-1	3	-2	5	1	O=C1c2c(F)cc(C3CC3)cc2OCCN1c1cccc(-c2ccnc3[nH]c(C4=CCN(C5COC5)CC4)cc23)c1CO	44	9.5	Dose-dependent effect	-1	Activity [21]: 2%; Activity [22]: -31%; Activity [23]: -6%; Activity [24]: 2%; Activity [25]: -9%
0.0026	15 (≈ 9.7 µg/mL)	> 10	> 10	5.06	> 2000	4.6	-3	1	-33	-5	2	-4	-12	-6	0	CCN1CCN(Cc2ccc(-c3cc4c(-c5cccc(N6CCOc7cc(C8CC8)cc(F)c7C6=O)c5CO)ccnc4[nH]3)nc2)CC1	69	47	Dose-dependent effect	2	Activity (Mus musculus [26]): 45%; Activity (Mus musculus [27]): 40%; Activity (Mus musculus [28]): 83%; Activity [21]: -6%; Activity [22]: -35%; Activity [23]: 4%; Activity [24]: 0%; Activity [25]: -5%
